Experimental data reported in PMC11605156, “Triterpenoids from Ganoderma lucidum inhibit cytochrome P450 enzymes interfering with the metabolic process of specific clinical drugs” (Frontiers in Pharmacology, 2024).

Assays:
[1] = target: T1, CYP1A2 (Homo sapiens, UniProt P05177); experiment: CYP1A2 inhibition, probe/drug metabolism in human liver microsomes (LC-MS/MS); conditions: human, human liver microsomes, pH 7.4, probe phenacetin 40 μM, Residual activity (%) CYP1A2, HLM 0.5 mg/mL, phenacetin 40 μM, 30 min
T1 sequence (P05177 1-516): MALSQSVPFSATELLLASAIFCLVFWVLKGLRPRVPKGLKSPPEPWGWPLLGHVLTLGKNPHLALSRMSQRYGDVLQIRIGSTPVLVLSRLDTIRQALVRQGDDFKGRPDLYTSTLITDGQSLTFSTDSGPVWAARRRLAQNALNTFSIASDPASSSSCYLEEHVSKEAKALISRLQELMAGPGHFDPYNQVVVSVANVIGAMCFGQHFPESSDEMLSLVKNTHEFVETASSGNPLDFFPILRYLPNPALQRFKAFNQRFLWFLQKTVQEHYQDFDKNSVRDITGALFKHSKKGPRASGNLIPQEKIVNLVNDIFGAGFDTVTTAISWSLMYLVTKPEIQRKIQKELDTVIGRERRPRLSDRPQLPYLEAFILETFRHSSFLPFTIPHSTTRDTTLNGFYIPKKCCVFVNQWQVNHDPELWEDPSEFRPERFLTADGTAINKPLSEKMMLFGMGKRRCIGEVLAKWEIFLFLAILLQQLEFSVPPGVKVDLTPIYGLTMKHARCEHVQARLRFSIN
Experimental: (§1) The total volume of the in vitro metabolic incubation system is 200 μL. The probe substrate concentration in the system is shown in Supplementary Table S1. […] The reaction sample was preheated in a constant temperature mixer at 37°C. Then NADP^+ was added to the system to initiate the reaction. The reaction time is 30 min, and 100 μL acetonitrile will be added on time to quickly terminate the reaction, followed by centrifugation at 4°C and 20,000 g for 20 min. The supernatant was analyzed using liquid chromatography tandem mass spectrometry (LC-MS/MS), and the activity of CYP enzymes was evaluated by the generation of probe metabolites. The mass spectrometry information of probe substrates is shown in Supplementary Table S3.
(§2) The isolated triterpenoids (1–66) were used to establish a compounds library. The inhibitory effects of 66 triterpenoids from G. lucidum on seven subtypes of CYP enzymes (CYP1A2, 2A6, 2D6, 2B6, 2C9, 2C19, 3A4) were evaluated followed the above-mentioned experimental procedures.
(§3) For 16 clinical drugs metabolized by CYP enzymes, potential DDI studies were conducted on triterpenoids (6, 25) of G. lucidum, and IC50 values were measured.
(§4) Clinical drugs: Phenacetin, melatonin, clozapine and riluzole are metabolized by CYP1A2. Bupropion, artemisinin, efavirenz and sertraline are metabolized by CYP2B6. Diclofenac, valsartan, glimepiride and glibenclamide are metabolized by CYP2C9. Midazolam, imatinib, simvastatin and diltiazem are metabolized by CYP3A4.
(§5) Table S1. The information of probes for CYPs activity assay
(§6) Table S2. Information of clinical drugs

[2] = target: CYP2D6 (Homo sapiens, UniProt P10635); experiment: CYP2D6 inhibition, dextromethorphan probe in human liver microsomes; conditions: human, human liver microsomes, pH 7.4, probe dextromethorphan 5 μM, Residual activity (%) CYP2D6, HLM 0.5 mg/mL
CYP2D6, sequence (P10635 whole entry): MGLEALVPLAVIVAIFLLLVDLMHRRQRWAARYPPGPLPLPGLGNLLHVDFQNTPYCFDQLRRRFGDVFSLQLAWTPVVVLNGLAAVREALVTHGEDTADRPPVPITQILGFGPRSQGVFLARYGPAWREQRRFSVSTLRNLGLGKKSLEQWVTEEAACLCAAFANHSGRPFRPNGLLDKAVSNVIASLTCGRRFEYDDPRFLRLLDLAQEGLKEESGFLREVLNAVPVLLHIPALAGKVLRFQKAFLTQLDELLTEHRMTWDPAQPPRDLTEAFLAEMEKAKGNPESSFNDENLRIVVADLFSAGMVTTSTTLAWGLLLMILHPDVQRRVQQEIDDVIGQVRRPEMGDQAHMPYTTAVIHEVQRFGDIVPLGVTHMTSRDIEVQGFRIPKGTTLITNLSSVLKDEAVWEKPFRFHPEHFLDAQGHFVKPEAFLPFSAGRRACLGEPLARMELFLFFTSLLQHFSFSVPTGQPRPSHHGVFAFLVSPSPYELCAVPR
Experimental: as §1, §2, §5

[3] = target: T2, CYP2B6 (Homo sapiens, UniProt P20813); experiment: CYP2B6 inhibition, probe/drug metabolism in human liver microsomes
T2 sequence (P20813 1-491): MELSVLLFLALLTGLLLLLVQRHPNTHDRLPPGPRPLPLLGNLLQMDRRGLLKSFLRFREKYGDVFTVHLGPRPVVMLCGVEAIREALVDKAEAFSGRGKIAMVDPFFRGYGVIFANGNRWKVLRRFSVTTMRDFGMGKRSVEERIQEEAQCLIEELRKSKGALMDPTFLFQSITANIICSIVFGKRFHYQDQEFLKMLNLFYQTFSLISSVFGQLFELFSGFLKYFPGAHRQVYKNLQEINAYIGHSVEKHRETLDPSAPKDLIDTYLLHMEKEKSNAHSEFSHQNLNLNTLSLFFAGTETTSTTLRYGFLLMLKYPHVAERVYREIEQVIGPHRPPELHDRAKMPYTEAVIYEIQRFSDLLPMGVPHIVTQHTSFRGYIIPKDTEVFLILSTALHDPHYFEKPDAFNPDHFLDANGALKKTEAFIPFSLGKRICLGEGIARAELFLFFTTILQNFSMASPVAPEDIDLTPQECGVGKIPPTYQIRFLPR
Experimental: as §1, §2, §3, §4, §5, §6

[4] = target: CYP2C9 (Homo sapiens, UniProt P11712); experiment: CYP2C9 inhibition, probe/drug metabolism in human liver microsomes
CYP2C9, sequence (P11712 whole entry): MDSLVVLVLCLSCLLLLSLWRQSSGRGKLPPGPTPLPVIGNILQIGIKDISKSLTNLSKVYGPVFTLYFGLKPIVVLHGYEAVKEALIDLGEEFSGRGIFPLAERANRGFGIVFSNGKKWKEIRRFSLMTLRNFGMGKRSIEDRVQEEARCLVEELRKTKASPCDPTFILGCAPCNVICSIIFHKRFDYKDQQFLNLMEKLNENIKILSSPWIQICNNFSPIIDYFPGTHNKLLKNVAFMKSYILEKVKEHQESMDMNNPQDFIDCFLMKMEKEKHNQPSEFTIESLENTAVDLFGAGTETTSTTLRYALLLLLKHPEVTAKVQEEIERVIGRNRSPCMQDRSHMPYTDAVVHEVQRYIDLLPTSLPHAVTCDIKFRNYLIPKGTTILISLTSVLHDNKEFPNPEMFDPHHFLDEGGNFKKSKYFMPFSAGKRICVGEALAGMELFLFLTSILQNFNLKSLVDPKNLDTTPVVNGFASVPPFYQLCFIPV
Experimental: as §1, §2, §3, §4, §5, §6

[5] = test system: CYP3A4, CYP2B6, CYP2C9; experiment: in vitro; format: in vitro ADME; conditions: human
Experimental: Bupropion, artemisinin, efavirenz and sertraline are metabolized by CYP2B6. Diclofenac, valsartan, glimepiride and glibenclamide are metabolized by CYP2C9. Midazolam, imatinib, simvastatin and diltiazem are metabolized by CYP3A4.
as §6
CYP subtype Drugs Metabolite Concentration Incubation time
CYP1A2 Melatonin 6-hydroxyl-melatonin 5 μM 30 min
Clozaril Demethyl-clozaril 10 μM 20 min
Riluzole Hydroxy-riluzole 5 μM 60 min
Phenacetin Deacetyl-phenacetin 40 μM 30 min
CYP2B6 Bupropion 4'-hydroxyl-bupropion 75 μM 30 min
Artemisinin Dihydroartemisinin 10 μM 30 min
Sertraline Demethyl-sertraline 5 μM 30 min
Efavirenz 8-hydroxyl-efavirenz 20 μM 30 min
CYP2C9 Diclofenac 4'-hydroxyl-diclofenac 4 μM 30 min
Valsartan 4-hydroxyl-valsartan 30 μM 30 min
Glimepiride Hydroxyl-glimepiride 50 μM 30 min
Glibenclamide Hydroxyl-glibenclamide 50 μM 30 min
CYP3A4 Midazolam 1'-hydroxyl-midazolam 5 μM 30 min
Simvastatin 6'-β-hydroxyl-simvastatin 10 μM 30 min
Diltiazem Demethyl-diltiazem 10 μM 30 min
Imatinib Demethyl-imatinib 5 μM 30 min

With CC(CCC(O)C(C)(O)CO)C1CCC2(C)C3=C(C(=O)CC12C)C1(C)CCC(=O)C(C)(C)C1CC3 (stereo not shown) [Compound 25, ganodrol C] as the compound, how does the activity at 30 min [1] read?
The activity at 30 min was 104 ± 18.9%.

And the activity at 30 min [2]?
The activity at 30 min was 68.22 ± 0.44%.

And the IC50 ([3]; IC50 against CYP 2B6, substrate bupropion 75 μM, HLM)?
Its IC50 is 25.3 ± 3.7 µM.

And the IC50 ([3]; IC50 against metabolism of artemisinin mediated by CYP2B6, substrate artemisinin 10 μM, 30 min)?
The IC50 was 21.5 ± 3.44 µM.

What about the IC50 ([3]; IC50 against metabolism of efavirenz mediated by CYP2B6, substrate efavirenz 20 μM, 30 min) of the same compound?
Its IC50 is 24.3 ± 3.05 µM.

What about the IC50 ([3]; IC50 against metabolism of sertraline mediated by CYP2B6, substrate sertraline 5 μM, 30 min) of the same compound?
The IC50 was 25.1 ± 2.86 µM.

What about the activity at 30 min ([3]; human, human liver microsomes, pH 7.4, probe bupropion 75 μM, Residual activity (%) CYP2B6, HLM 0.5 mg/mL, bupropion 75 μM, 30 min) of the same compound?
The activity at 30 min was 56.8 ± 2.04%.

And the IC50 ([4]; IC50 against metabolism of glibenclamide mediated by CYP2C9, substrate glibenclamide 50 μM, 30 min)?
The IC50 was 10.3 ± 0.12 µM.

What about the IC50 ([4]; IC50 against metabolism of glimepiride mediated by CYP2C9, substrate glimepiride 50 μM, 30 min) of the same compound?
Its IC50 is 12.3 ± 0.43 µM.

And the IC50 ([4]; IC50 against metabolism of valsartan mediated by CYP2C9, substrate valsartan 30 μM, 30 min)?
The IC50 was 14.3 ± 1.14 µM.

What about the IC50 at 30 min ([4]; human, human liver microsomes, pH 7.4, probe diclofenac 4 μM, IC50 against CYP 2C9, substrate diclofenac 4 μM, HLM) of the same compound?
The IC50 at 30 min was 11.4 µM.

And the activity at 30 min ([4]; human, human liver microsomes, pH 7.4, probe diclofenac 4 μM, Residual activity (%) CYP2C9, HLM 0.5 mg/mL, diclofenac 4 μM, 30 min)?
Its activity at 30 min is 32 ± 2.74%.

What about the IC50 at 30 min [5] of the same compound?
The IC50 at 30 min was 4.5 to 25.3 µM.
